According to US6395769B1, “2-arylbenzo[b]thiophenes useful for the treatment of estrogen deprivation syndrome” (Eli Lilly and Company, priority 1997, dated 2002):

What was measured:
bone mineral density = experiment: Osteoporosis model in ovariectomized rats, bone mineral density; format: in vivo, Sprague Dawley rats; settings: OVX rats treated orally daily for 35 days, in 20% hydroxypropyl β-cyclodextrin; femur x-ray image analysis and tibia quantitative computed tomography
Text: Seventy-five day old female Sprague Dawley rats (weight range of 200 g to 225 g) are obtained from Charles River Laboratories (Portage, Mich.). The animals are either bilaterally ovariectomized (OVX) or exposed to a Sham surgical procedure at Charles River Laboratories, and then shipped after one week. Upon arrival, they are housed in metal hanging cages in groups of 3 or 4 per cage and have ad libitum access to food (calcium content approximately 0.5%) and water for one week. Room temperature is maintained at 22.2°±1.70° C. with a minimum relative humidity of 40%. The photoperiod in the room is 12 hours light and 12 hours dark.
Following the General Procedure, infra, the rats are treated daily for 35 days (6 rats per treatment group) and sacrificed by carbon dioxide asphyxiation on the 36th day. The 35 day time period is sufficient to allow maximal reduction in bone density, measured as described herein. At the time of sacrifice, the uteri are removed, dissected free of extraneous tissue, and the fluid contents are expelled before determination of wet weight in order to confirm estrogen deficiency associated with complete ovariectomy. […]
The right femurs are excised and digitilized x-rays generated and analyzed by an image analysis program (NIH image) at the distal metaphysis. The proximal aspect of the tibiae from these animals are also scanned by quantitative computed tomography.

melting point [°C] | Compound | loss of bone mineral density (bone mineral density)
193 to 194 | COc1ccc(-c2cc3ccc(OC)cc3s2)cc1 [Example 1, 2-(4-Methoxyphenyl)-6-Methoxybenzo[b]thiophene] | 
 | C#C[C@]1(O)CC[C@H]2[C@@H]3CCc4cc(O)ccc4[C@H]3CC[C@@]21C [ethynyl estradiol, 17-α-ethynyl estradiol] | a reduction in the loss of bone mineral density
